{"source": "patent US10653715B2", "about": "“Methods and compositions for extending lifespan” (priority 2016, dated 2020)", "system": "B6C3F1/J mice", "assay": "Large-scale lifespan screen of compounds in long-lived B6C3F1 hybrid mice", "type": "in vivo, mouse", "conditions": "for extension of maximal lifespan: maximal lifespan = average lifespan of the 20% longest-lived mice; for extension of mean lifespan: 15 per compound, dosed from 5 months of age throughout lifespan, relative to untreated controls", "source_text": "The majority of compounds included drugs currently used in medicine and drug-like molecules, with wide range of targets that span the entire pharmacological space.\nThe compounds were clustered into 62 drug classes based on their mechanism of action or cellular target. Screening a wide range of known compounds could potentially resolve two challenges. First, to analyze how distinct drug classes with common mechanisms of action affect aging in mammals. Second, to determine with no bias or predispositions which of the current pharmacological drugs can extend lifespan.\nIn this study, the inventors used a strain of long-lived B6C3F1 hybrid mice (C57BL/6J♀×C3H/HeJ♂) with well-characterized aging dynamics (Lipman 1999, Turturro, 1999). […] Each treatment group included 15 female mice per compound, while 335 females were used as controls. Three additional control groups included 60 female mice on dietary restriction (60% ad libitum), 60 female mice on a purified diet, and 60 male mice as gender control. Each compound treatment and diet intervention were administered to mice starting at 5 months of age, and continued throughout their lifespan. The primary endpoint was mouse mortality, from which we calculated mean lifespan, maximal lifespan, and the onset of morbidity for each experimental group. To calculate the statistical significance, the mean lifespan, maximal lifespan, and the onset of morbidity for each individual compound and drug class were compared to the lifespan distribution of untreated mice. […]", "key": {"[1]": {"conditions": "B6C3F1/J mice, compared to the lifespan distribution of untreated mice"}, "[2]": {"conditions": "female B6C3F1/J mice, dosed from 5 months of age, relative to controls"}}, "note": "Values joined by “and” are separate entries in the source; they are usually repeats but may differ in a detail not shown here. Identical values can stand only once."}
{"compound": "C[C@]12CC[C@@H]3c4ccc(O)cc4CC[C@H]3[C@@H]1CC[C@@H]2O", "note": "[17β-estradiol]", "values": [{"measurement": "effect on mean and/or maximal lifespan (in words)", "setting": "[1]", "result": "significantly shortened"}, {"measurement": "reduction of mean lifespan", "setting": "[2]", "result": 21, "unit": "%"}]}
{"compound": "CCOC(=O)C(C)(C)Oc1ccc(Cl)cc1", "note": "[Clofibrate]", "values": [{"measurement": "extension of maximal lifespan", "setting": "[2]", "result": 20.9, "unit": "%"}, {"measurement": "extension of maximal lifespan", "setting": "female B6C3F1/J mice, dosed from 5 months of age, relative to controls, listed as clofibrate", "result": 21, "unit": "%"}]}
{"compound": "CC(=O)[O-].CC(=O)[O-].[Mg+2]", "note": "[Magnesium Acetate]", "values": [{"measurement": "effect on mean and/or maximal lifespan (in words)", "setting": "mouse, in vivo", "result": "significantly extended"}]}
{"compound": "[Cl-].[Cl-].[Mg+2]", "note": "[Magnesium Chloride]", "values": [{"measurement": "effect on mean and/or maximal lifespan (in words)", "setting": "mouse, in vivo", "result": "significantly extended"}]}
{"compound": "[Mg+2].[OH-].[OH-]", "note": "[Magnesium Hydroxide]", "values": [{"measurement": "effect on mean and/or maximal lifespan (in words)", "setting": "mouse, in vivo", "result": "significantly extended"}]}
{"compound": "O=C(O)CN(CCN(CC(=O)O)CC(=O)O)CCN(CC(=O)O)CC(=O)O", "note": "[Pentetic acid, diethylene triamene pentaacetic acid]", "values": [{"measurement": "effect on mean and/or maximal lifespan (in words)", "setting": "[1]", "result": "significantly extended"}, {"measurement": "extension of mean lifespan", "setting": "female B6C3F1/J mice", "result": 16.1, "unit": "%"}, {"measurement": "extension of mean lifespan", "setting": "female B6C3F1/J mice, listed as pentetic acid", "result": 16, "unit": "%"}]}
{"compound": "C[C@@H]1O[C@@H](O[C@@H]2C=C3CC[C@@H]4[C@H](CC[C@]5(C)[C@@H](c6ccc(=O)oc6)CC[C@]45O)[C@@]3(C)CC2)[C@H](O)[C@H](O)[C@H]1O", "note": "[Proscillaridin A]", "values": [{"measurement": "effect on mean and/or maximal lifespan (in words)", "setting": "[1]", "result": "significantly extended"}, {"measurement": "extension of mean lifespan", "setting": "female B6C3F1/J mice", "result": "16% and 16.4%"}, {"measurement": "extension of onset of morbidity", "setting": "[2]", "result": "40% and 39.9%"}]}
{"compound": "Inulin", "values": [{"measurement": "effect on mean and/or maximal lifespan (in words)", "setting": "[1]", "result": "significantly extended"}, {"measurement": "extension of mean lifespan", "setting": "female B6C3F1/J mice", "result": 16, "unit": "%"}, {"measurement": "extension of maximal lifespan", "setting": "[2]", "result": 18, "unit": "%"}]}
